Results published in patent publication US5290689A, “New cyclic FR-900520 microbial biotransformation agent” (Merck & Co., Inc., priority 1992, dated 1994).
“Also recorded” adds a separate entry of the source.

How the values were obtained:
[1] = test system: mouse T lymphocytes (Splenic T-cells stimulated with ionomycin + PMA); assay: T-cell proliferation assay (ionomycin + PMA stimulated, tritiated thymidine uptake); type: cell-based, mouse (C57B1/6)
Procedure: The principle of this assay is to measure the proliferation of mouse T lymphocytes stimulated with the combination of ionomycin plus PMA. A positive sample, e.g. FK-506, in this assay will inhibit T-cell proliferation, as indicated by reduced tritiated thymidine uptake.
T-Cell Proliferation Assay
Purified Compound I, as prepared by HPLC above, was dissolved in absolute ethanol at 1 mg/ml.
Spleens from C57B1/6 mice were taken under sterile conditions and gently dissociated in ice-cold RPMI 1640 culture medium (GIBCO, Grand Island, N.Y.) supplemented with 10% heat-inactivated fetal calf serum (GIBCO). Cells were pelleted by centrifugation at 1500 rpm for 8 minutes. Contaminating red cells were removed by treating the pellet with ammonium chloride lysing buffer (GIBCO) for 2 minutes at 4° C. […]
Purified T lymphocytes were resuspended at 2.5×10^5 cells/ml in complete culture medium composed of RPMI 1640 medium with 10% heat-inactivated fetal calf serum, […], 1 mM sodium pyruvate, 2×10^-5 M 2-mercaptoethanol and 50 μg/ml gentamycin. […] Radioactivity of filter discs corresponding to individual wells was measured by standard liquid scintillation counting methods (Betacounter). Mean counts per minute of replicate wells were calculated and the results expressed as percent inhibition of tritiated thymidine uptake (proliferation) as follows: [formula] […]

[2] = reputed; EPO Publication No. 0184162; cited from earlier work

Which results are given for `CC[C@@H]1C=C2COC1(O)C[C@H](O)[C@@H](C)[C@@H](/C(C)=C/[C@@H]1CC[C@@H](O)[C@H](OC)C1)OC(=O)[C@@H]1CCCCN1C(=O)C(=O)[C@]1(O)O[C@H]([C@@H](OC)C[C@@H](C)C2)[C@@H](OC)C[C@H]1C` [Compound I]?
Inhibition of T-cell proliferation on addition of IL2 ([1]; 50 units/ml recombinant IL2 added at the initiation of culture): reversed; immunosuppressant activity (inhibition of T-cell activation) ([1]; qualitative): positive inhibition of T-cell activation; also recorded: positive immunosuppressive activity

With `C=CC[C@@H]1/C=C(\C)C[C@H](C)C[C@H](OC)[C@H]2O[C@@](O)(C(=O)C(=O)N3CCCC[C@H]3C(=O)O[C@H](/C(C)=C/[C@@H]3CC[C@@H](O)[C@H](OC)C3)[C@H](C)[C@@H](O)CC1=O)[C@H](C)C[C@@H]2OC` [FK-506] as the compound, how does the “effectiveness as immunosuppressant relative to cyclosporin” value [2] read?
Its value is 100 times.
